In US12428389B2, “Diarylamide compound and application thereof” (Sunshine Lake Pharma Co., Ltd., priority 2019, dated 2025) one finds IC50 data, which are given here for 25 compounds.

In one assay the target is T1, human UT-B (Homo sapiens, UniProt Q13336).
T1 construct: endogenous in cells; host or cells: human erythrocytes
T1 sequence (Q13336 1-389): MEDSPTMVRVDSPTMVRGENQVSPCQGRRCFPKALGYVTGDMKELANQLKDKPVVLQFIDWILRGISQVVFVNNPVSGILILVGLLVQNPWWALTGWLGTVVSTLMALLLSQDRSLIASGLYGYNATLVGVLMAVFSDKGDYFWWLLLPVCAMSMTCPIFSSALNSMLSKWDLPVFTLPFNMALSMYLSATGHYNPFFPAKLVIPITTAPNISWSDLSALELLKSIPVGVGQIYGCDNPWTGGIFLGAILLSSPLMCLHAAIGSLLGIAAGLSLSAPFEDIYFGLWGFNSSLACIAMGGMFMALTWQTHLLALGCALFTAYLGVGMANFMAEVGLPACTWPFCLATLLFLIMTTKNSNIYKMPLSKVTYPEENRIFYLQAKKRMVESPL
The experiment in a line: erythrocyte lysis model, human erythrocytes. In kind it is cell-based. The procedure: (§1) Erythrocyte lysis rate was calculated:
(§2) The formula for calculating the lysis rate percentage of erythrocytes, wherein Atest was the absorbance value of the test well, Aneg was the absorbance value of the negative control well, and Apos was the absorbance value of the positive control well. Erythrocyte lysis rate was calculated by measuring absorption at a wavelength of 710 nm.
(§3) The erythrocytes of three species of human, rats (SD rats) and mice (C57 mice) were taken, and urea transporter inhibitors were preliminarily screened from the above screening compound library by using the erythrocyte urea transporter inhibitor screening model.

Assay [1] has as its target T2, UT-B (Mus musculus, UniProt Q8VHL0).
T2 construct: endogenous in cells; host or cells: erythrocytes of C57 mice
T2 sequence (Q8VHL0 1-384): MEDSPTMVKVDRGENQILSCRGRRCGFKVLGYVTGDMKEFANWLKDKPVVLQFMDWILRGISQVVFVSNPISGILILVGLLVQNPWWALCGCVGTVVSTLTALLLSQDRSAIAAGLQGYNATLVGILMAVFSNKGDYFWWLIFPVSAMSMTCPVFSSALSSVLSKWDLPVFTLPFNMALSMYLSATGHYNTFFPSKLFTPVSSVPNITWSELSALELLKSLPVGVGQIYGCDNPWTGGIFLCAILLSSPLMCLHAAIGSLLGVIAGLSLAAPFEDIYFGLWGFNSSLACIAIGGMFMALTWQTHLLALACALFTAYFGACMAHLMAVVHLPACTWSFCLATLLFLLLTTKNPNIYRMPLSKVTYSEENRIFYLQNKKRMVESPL
Nature of the assay: erythrocyte lysis model, mouse erythrocytes. In kind it is cell-based. Conditions: concentration when the erythrocyte lysis rate of mice was 50%. On the procedure:
as §1, §2, §3

Assay [2] has as its target T3, UT-B (Rattus norvegicus, UniProt P97689).
T3 construct: endogenous in cells; host or cells: erythrocytes of SD rats
T3 sequence (P97689 1-384): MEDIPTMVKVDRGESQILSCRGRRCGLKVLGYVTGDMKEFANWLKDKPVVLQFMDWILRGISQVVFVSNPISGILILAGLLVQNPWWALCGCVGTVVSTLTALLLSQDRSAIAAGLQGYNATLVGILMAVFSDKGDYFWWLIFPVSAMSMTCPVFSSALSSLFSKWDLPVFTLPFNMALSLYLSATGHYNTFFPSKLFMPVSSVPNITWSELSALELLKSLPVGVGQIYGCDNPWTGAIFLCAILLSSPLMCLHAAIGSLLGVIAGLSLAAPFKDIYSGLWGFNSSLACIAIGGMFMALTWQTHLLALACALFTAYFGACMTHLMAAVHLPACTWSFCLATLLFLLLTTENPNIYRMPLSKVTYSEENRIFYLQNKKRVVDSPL
Nature of the assay: erythrocyte lysis model, rat erythrocytes. In kind it is cell-based, rats. On the procedure:
as §1, §2, §3

Setting [3] is: class of the IC50 to human UT-B, read-out: Activity level.
The mark [4] stands for this setting: concentration when the erythrocyte lysis rate of human was 50%, read-out: IC50 human.
Where [5] appears, read: concentration when the erythrocyte lysis rate of rats was 50%, read-out: IC50 rats.

Each structure is given as a SMILES string. Like-named read-outs stand apart in the source and are kept apart here. Bounds are passed on as bounds.

On to `CC(=O)Nc1ccc(NC(=O)c2ccc([N+](=O)[O-])s2)cc1` [Example 9, N-(4-acetamidophenyl)-5-nitrothiophene-2-carboxamide], for which the IC50 on human UT-B (setting [3]) was < 10 µM; at human UT-B (setting [4]), 2.53 µM; on UT-B [1], 18.7 µM; on UT-B [2] (setting [5]), 20.1 µM.

For the compound `O=C(Nc1ccc2ncccc2c1)c1ccc([N+](=O)[O-])o1` [Example 16, N-(quinolin-6-yl)-5-nitrofuran-2-carboxamide], the IC50 at human UT-B (setting [3]) was < 10 µM; on human UT-B (setting [4]), 1.64 µM; against UT-B [1], 5.08 µM; at UT-B [2] (setting [5]), 5.49 µM.

Turning to `O=C(Nc1ccon1)c1ccc([N+](=O)[O-])o1` [Example 19, N-(isoxazol-3-yl)-5-nitrofuran-2-carboxamide], the IC50 at human UT-B (setting [3]) is < 10 µM; at human UT-B (setting [4]) it was 3.63 µM; at UT-B [1] it was 10.2 µM; on UT-B [2] (setting [5]), 30 µM.

Take `O=C(Nc1cc[nH]n1)c1ccc([N+](=O)[O-])o1` [Example 20, N-(1H-pyrazol-5-yl)-5-nitrofuran-2-carboxamide]: the IC50 is < 10 µM on human UT-B (setting [3]), 0.22 µM at human UT-B (setting [4]), 1.09 µM on UT-B [1] and 1.36 µM on UT-B [2] (setting [5]).

Take `Cn1ccc(NC(=O)c2ccc([N+](=O)[O-])o2)n1` [Example 21, N-(1-methyl-1H-pyrazol-3-yl)-5-nitrofuran-2-carboxamide]: the IC50 is < 10 µM on human UT-B (setting [3]), 2.21 µM at human UT-B (setting [4]), 8.51 µM against UT-B [1] and 1.1 µM at UT-B [2] (setting [5]).

As to `Cn1cc(NC(=O)c2ccc([N+](=O)[O-])o2)cn1` [Example 22, N-(1-methyl-1H-pyrazol-4-yl)-5-nitrofuran-2-carboxamide], the IC50 is 10 to 20 µM at human UT-B (setting [3]), 15.8 µM on human UT-B (setting [4]), 33.2 µM on UT-B [1] and 9.64 µM at UT-B [2] (setting [5]).

With `Cc1cccc(NC(=O)c2ccc([N+](=O)[O-])o2)c1` [Example 28, N-(3-methylphenyl)-5-nitrofuran-2-carboxamide], the IC50 on human UT-B (setting [3]) was < 10 µM; at human UT-B (setting [4]), 3.66 µM; at UT-B [1], 30.5 µM; at UT-B [2] (setting [5]) it was 3.91 µM.

In the case of `COc1ccccc1NC(=O)c1ccc([N+](=O)[O-])o1` [Example 29, N-(2-methoxyphenyl)-5-nitrofuran-2-carboxamide], the IC50 at human UT-B (setting [3]) was < 10 µM; on human UT-B (setting [4]), 4.87 µM; against UT-B [1] it was 17.1 µM; at UT-B [2] (setting [5]) it was 4.11 µM.

Regarding `COc1cccc(NC(=O)c2ccc([N+](=O)[O-])o2)c1` [Example 30, N-(3-methoxyphenyl)-5-nitrofuran-2-carboxamide], the IC50 on human UT-B (setting [3]) was < 10 µM; at human UT-B (setting [4]), 2.27 µM; against UT-B [1], 9.65 µM; on UT-B [2] (setting [5]), 1.11 µM.

As to `O=C(Nc1cccc(O)c1)c1ccc([N+](=O)[O-])o1` [Example 32, N-(3-hydroxyphenyl)-5-nitrofuran-2-carboxamide], the IC50 was < 10 µM at human UT-B (setting [3]), 0.91 µM at human UT-B (setting [4]), 2.39 µM against UT-B [1] and 0.67 µM at UT-B [2] (setting [5]).

As to `Nc1cccc(NC(=O)c2ccc([N+](=O)[O-])o2)c1` [Example 34, N-(3-aminophenyl)-5-nitrofuran-2-carboxamide], the IC50 is < 10 µM on human UT-B (setting [3]), 3.58 µM on human UT-B (setting [4]), 10.5 µM against UT-B [1] and 1.8 µM on UT-B [2] (setting [5]).

As to `O=C(Nc1ccccc1F)c1ccc([N+](=O)[O-])o1` [Example 35, N-(2-fluorophenyl)-5-nitrofuran-2-carboxamide], the IC50 is < 10 µM on human UT-B (setting [3]), 3.62 µM on human UT-B (setting [4]), 43.8 µM against UT-B [1] and 3.8 µM on UT-B [2] (setting [5]).

For `O=C(Nc1cccc(F)c1)c1ccc([N+](=O)[O-])o1` [Example 36, N-(3-fluorophenyl)-5-nitrofuran-2-carboxamide], the IC50 on human UT-B (setting [3]) was < 10 µM; at human UT-B (setting [4]) it was 3.09 µM; at UT-B [1], 9.28 µM; on UT-B [2] (setting [5]), 1.85 µM.

Regarding `O=C(Nc1cccc(Cl)c1)c1ccc([N+](=O)[O-])o1` [Example 38, N-(3-chlorophenyl)-5-nitrofuran-2-carboxamide], the IC50 was < 10 µM at human UT-B (setting [3]), 2.91 µM on human UT-B (setting [4]), 5.81 µM against UT-B [1] and 1.05 µM on UT-B [2] (setting [5]).

Turning to `N#Cc1cccc(NC(=O)c2ccc([N+](=O)[O-])o2)c1` [Example 40, N-(3-cyanophenyl)-5-nitrofuran-2-carboxamide], the IC50 was < 10 µM on human UT-B (setting [3]), 1 µM at human UT-B (setting [4]), 7.85 µM on UT-B [1] and 2.77 µM on UT-B [2] (setting [5]).

On to `CCOC(=O)c1cccc(NC(=O)c2ccc([N+](=O)[O-])o2)c1` [Example 42, Ethyl 3-(5-nitrofuran-2-carboxamido)benzoate], for which the IC50 is < 10 µM at human UT-B (setting [3]), 0.47 µM at human UT-B (setting [4]), 2.3 µM on UT-B [1] and 0.45 µM on UT-B [2] (setting [5]).

With `NC(=O)c1cccc(NC(=O)c2ccc([N+](=O)[O-])o2)c1` [Example 44, N-(3-carbamoylphenyl)-5-nitrofuran-2-carboxamide], the IC50 on human UT-B (setting [3]) was < 10 µM; on human UT-B (setting [4]), 0.42 µM; on UT-B [1], 0.5 µM; on UT-B [2] (setting [5]), 0.17 µM.

Take `CC(=O)c1cccc(NC(=O)c2ccc([N+](=O)[O-])o2)c1` [Example 46, N-(3-acetylphenyl)-5-nitrofuran-2-carboxamide]: the IC50 on human UT-B (setting [3]) was < 10 µM; at human UT-B (setting [4]), 1.84 µM; on UT-B [1], 2.46 µM; on UT-B [2] (setting [5]) it was 0.49 µM.

As for `O=C(Nc1ccc(CCO)cc1)c1ccc([N+](=O)[O-])o1` [Example 50, N-(4-(2-hydroxyethyl)phenyl)-5-nitrofuran-2-carboxamide], the IC50 was < 10 µM on human UT-B (setting [3]), 5.3 µM on human UT-B (setting [4]), 10.2 µM at UT-B [1] and 8.37 µM at UT-B [2] (setting [5]).

Regarding `NCc1ccc(NC(=O)c2ccc([N+](=O)[O-])o2)cc1` [Example 51, N-(4-aminomethylphenyl)-5-nitrofuran-2-carboxamide], the IC50 on human UT-B (setting [3]) was < 10 µM; on human UT-B (setting [4]) it was 0.94 µM; at UT-B [1], 1.69 µM; on UT-B [2] (setting [5]) it was 0.49 µM.

For `O=C(Nc1ccc(NC(=O)c2ccc([N+](=O)[O-])o2)cc1)c1ccc([N+](=O)[O-])o1` [Example 52, N,N′-(1,4-phenylene)bis(5-nitrofuran-2-carboxamide)], the IC50 against human UT-B (Activity level, class of the IC50 to human UT-B) is < 10 µM; on human UT-B (IC50 human, concentration when the erythrocyte lysis rate of human was 50%), 0.65 µM; on UT-B [1] it was 0.52 µM; against UT-B [2], 0.27 µM.

Take `CNC(=O)c1cccc(NC(=O)c2ccc([N+](=O)[O-])o2)c1` [Example 53, N-(3-(methylcarbamoyl)phenyl)-5-nitrofuran-2-carboxamide]: the IC50 at human UT-B (setting [3]) is < 10 µM; on human UT-B (setting [4]) it was 0.023 µM; against UT-B [1], 0.29 µM; at UT-B [2] (setting [5]), 0.015 µM.

As for `CN(C)C(=O)c1cccc(NC(=O)c2ccc([N+](=O)[O-])o2)c1` [Example 54, N-(3-(dimethylcarbamoyl)phenyl)-5-nitrofuran-2-carboxamide], the IC50 was < 10 µM on human UT-B (setting [3]), 0.74 µM on human UT-B (setting [4]), 0.31 µM against UT-B [1] and 0.2 µM at UT-B [2] (setting [5]).

Take `CCNC(=O)c1cccc(NC(=O)c2ccc([N+](=O)[O-])o2)c1` [Example 55, N-(3-(ethylcarbamoyl)phenyl)-5-nitrofuran-2-carboxamide]: the IC50 at human UT-B (setting [3]) is < 10 µM; on human UT-B (setting [4]) it was 0.88 µM; against UT-B [1], 5.41 µM; on UT-B [2] (setting [5]), 1.21 µM.

In the case of `CCOC(=O)c1c[nH]nc1NC(=O)c1ccc([N+](=O)[O-])o1` [Example 76, ethyl 5-(5-nitrofuran-2-carboxamide)-1H-pyrazole-4-carboxylate], the IC50 on human UT-B (setting [3]) is > 80 µM; at human UT-B (setting [4]) it was > 80 µM; at UT-B [1] it was 15 µM.
